# Data published in PubChem BioAssay AID1996.
# Settings: buffer; pH 7.4; 200.0 µM
row,solubility kinetic,Compound
1,1.7 µg/mL,O=C(NCc1cccs1)c1cc(-c2ccc(O)cc2)on1
2,> 46.2 µg/mL,Cl.NCCOc1ccc(C23CC4CC(CC(C4)C2)C3)cc1
3,12.1 µg/mL,CC(=O)c1cccc(NC(=O)c2nc(-c3ccccc3)oc2C)c1
4,> 48.7 µg/mL,C/C(CC(=O)Nc1cc(C)ccn1)=N\NC(=O)c1ccccc1C
5,0.5 µg/mL,CCCOc1ccc(-c2nc[nH]c2[N+](=O)[O-])cc1
6,0.4 µg/mL,Cc1ccc(C2(C)NC(=O)N(CC(=O)N3CC(=O)Nc4ccccc43)C2=O)cc1 (stereo not drawn)
7,38.7 µg/mL,O=C1C(Cl)=C(N2CCOCC2)C(=O)N1c1ccccc1F
8,> 54.7 µg/mL,COc1cc(SC)ccc1C(=O)N(Cc1ccccc1)c1ccccn1
9,6 µg/mL,COc1ccc(NC(=O)CSc2nc3ccc(OC)cc3[nH]2)cc1
10,32.2 µg/mL,Cc1ccc(OCCCCNC(C)c2ccccc2)c(C)c1 (stereo not drawn)
11,< 0.4 µg/mL,COc1ccc(OCC(=O)Nc2cc(OC)ccc2N2CCCCC2)cc1
12,> 33.9 µg/mL,CCCC(=O)Nc1nc(C)c(C(C)=O)s1
13,20 µg/mL,Cn1c(N)c(C(=O)COC(=O)c2cccc(S(=O)(=O)N3CCOCC3)c2)c(=O)n(C)c1=O
14,> 47.4 µg/mL,O=C(O)COc1ccccc1/C=N/NC(=O)c1ccc(F)cc1
15,31.2 µg/mL,CN1c2ccccc2C(=O)NC1c1ccc([N+](=O)[O-])s1 (stereo not drawn)
16,> 48.8 µg/mL,CC(C)COc1cccc(C(=O)NC2(C)CCS(=O)(=O)C2)c1 (stereo not drawn)
17,3.4 µg/mL,COc1ccc(/C=C/c2c([N+](=O)[O-])c(=O)n(C)c(=O)n2C)cc1
18,> 44.7 µg/mL,CC(C)NC(=O)CN1CCN(C(=O)CCl)CC1.Cl
19,25.6 µg/mL,Cc1sc(N2C(=O)C3C(C2=O)[C@H]2C=C[C@@H]3C2)c(C#N)c1C (stereo partly drawn)

row,solubility kinetic,Compound
1,56 µg/mL,CC(=O)c1ccc(OCCCC(=O)Nc2cccc(S(=O)(=O)N3CCOCC3)c2)cc1
2,12.3 µg/mL,OCCN=C1CCCc2c1[nH]c1ccc(Cl)cc21
3,15.8 µg/mL,CC1CCCN(c2ccc(C(=O)Nc3cccnc3)cc2[N+](=O)[O-])C1 (stereo not drawn)
4,1.4 µg/mL,O=C(c1ccc(Cl)cc1)N1CCc2c([nH]c3ccccc23)C1C(F)(F)F (stereo not drawn)
5,26.8 µg/mL,O=C(O)C1(Cc2nc3ccccc3[nH]2)CCCC1
6,9.7 µg/mL,O=C(Nc1ccccc1)OCCCc1ccccc1
7,30 µg/mL,CC1CC(=O)Nc2ccccc2N1S(=O)(=O)c1cccc(F)c1 (stereo not drawn)
8,51 µg/mL,O=[N+]([O-])c1ccccc1S(=O)(=O)NCCSCc1ccco1
9,> 43.9 µg/mL,CCOC(=O)c1ccc(Oc2cc(C)nc(Cl)n2)cc1
10,< 0.1 µg/mL,COc1ccc(OC)c(Nc2nc(NCc3ccco3)nc(N)c2[N+](=O)[O-])c1
11,24.9 µg/mL,O=S(=O)(Nc1ccc(O)c2ccccc12)c1cccs1
12,4.9 µg/mL,Cc1cc2ccccn2c1C(=O)c1cccc(F)c1
13,0.6 µg/mL,Cc1cc(Nc2cccc(Cl)c2)nc(-c2ccccc2O)n1
14,43.9 µg/mL,COc1ccc(Cl)cc1NC(=O)NCCN1CCNC1=O
15,> 37.8 µg/mL,Cn1cc([N+](=O)[O-])c(C(=O)N2CCCCCC2)n1
16,19.7 µg/mL,O=C(Oc1ccc(Cl)c(Cl)c1)C1=CC=CN2CCS(=O)(=O)N=C12
17,30 µg/mL,COC(=O)c1c(C)nc2nonc2c1N
18,> 59.6 µg/mL,COc1ccc(C(=O)OCC(=O)NCCN2C(=O)CSC2=O)cc1[N+](=O)[O-]
19,26.8 µg/mL,CC(C)(C)NCCOc1ccc2ccccc2c1

row,solubility kinetic,Compound
1,20.8 µg/mL,O=C(Oc1cccc(OC(=O)N2CCCCC2)c1)N1CCCCC1
2,9.1 µg/mL,CCOC(=O)Nc1ccc2nc3n(c(=O)c2c1)CCCCC3
3,> 50.6 µg/mL,N#Cc1ccccc1OCC(=O)NC(=O)NC1CCS(=O)(=O)C1 (stereo not drawn)
4,> 41.7 µg/mL,COc1ccc(S(=O)(=O)Nc2ccccn2)cc1C
5,> 46.3 µg/mL,CCCc1cc(=O)[nH]c(SCC(=O)Nc2cc(C)on2)n1
6,4.8 µg/mL,Cc1cc(C)cc(NC(=O)N(CCC#N)Cc2cccs2)c1
7,> 52.4 µg/mL,O=C(Nc1cc2c(cc1Br)OCCCO2)c1cccnc1
8,4.4 µg/mL,COC(=O)c1ccccc1NC(=O)N1CCN(c2ccc(F)cc2)CC1
9,> 46.7 µg/mL,Cc1ccc(S(=O)(=O)CC(=O)N2CC(C)OC(C)C2)cc1 (stereo not drawn)
10,36.5 µg/mL,CCOC(=O)c1sc(-c2cccc(C(F)(F)F)c2)nc1O
11,< 0.3 µg/mL,Cc1ccc(-c2cc(NC(=O)c3ccccc3)on2)cc1
12,36.6 µg/mL,Cc1ccc(C)c(S(=O)(=O)c2c[nH]c(=S)[nH]c2=O)c1
13,1.2 µg/mL,Cn1c(-c2ccccc2)cnc1NCc1cc(Cl)ccc1O
14,10.5 µg/mL,Brc1ccccc1C1N=C(c2ccccc2)NO1 (stereo not drawn)
15,29.5 µg/mL,Cc1ccc(NC(=O)COC(=O)CC2CCCC2)cc1F
16,53.9 µg/mL,COc1ccc(-c2cc(C(=O)N3CCCC3)c3ccccc3n2)cc1OC
17,> 51.4 µg/mL,CN(CCC#N)C(=O)CC(Cc1ccccc1)C1CCOC(C)(C)C1 (stereo not drawn)
18,> 41.2 µg/mL,Cc1oc2ccccc2c1CC(=O)NCCCN(C)C

row,Compound,solubility kinetic
1,COCc1cc(OC(=O)N(C)C)nc(-c2ccccc2)n1,> 43.1 µg/mL
2,O=C(NCc1ccccc1)c1cccn(Cc2ccccc2)c1=O,45.9 µg/mL
